Marks after values point to notes of the source that are not given here.
How the values were obtained:
[1] = test system: adjuvant arthritis; test: Established adjuvant arthritis model (chronic adjuvant arthritis test); format: in vivo, male Charles River Lewis rats; details: 7 days; for Change in Paw Volume (ml) / Change in body weight(g): difference from day 21 to day 28; for % Change in plasma fibrinogen: relative to vehicle-treated arthritic animals
[2] = Serum triglycerides and cholesterol in normal animals treated for 14 days; format: in vivo, rats; details: for Cholesterol (% change): serum, normal rats, vs vehicle-treated normal rats
Description: Normal animals were also treated with the test retinoids for 14 days and serum samples were collected for the determination of serum triglycerides and cholesterol. Triglyceride and cholesterol levels in the drug-treated animals were compared with triglyceride and cholesterol levels in vehicle-treated animals.

[3] = test system: adjuvant arthritis; test: Developing adjuvant arthritis model (chronic adjuvant arthritis test); format: in vivo, male Charles River Lewis rats; details: for % Change in Paw Volume (day 23) left / % Change in Paw Volume (day 23) right / % Change in plasma fibrinogen: vs vehicle-treated arthritic animals; for Body Weight gain(g): body weight on day 23 minus day 0
Description: That the compounds of this invention are effective anti-arthritic agents can be seen from the results obtained when these compounds are administered to rats in accordance with the chronic adjuvant arthritis test system disclosed in Billingham and Davies "Handbook of Experimental Pharmacology" (editors J.R. Vane and S.H. Ferreira) Vol. 50/II, pg. 108-144, Springer-Verlag, Berlin, 1979). In this procedure, adjuvant arthritis was induced by the injection on day 0 to 0.10 ml of adjuvant (a suspension of heat-killed, dessicated Mycobacterium butyricum, 0.5% (w/v), in heavy mineral oil containing 0.2% digitonin) subplantarly into the right hind paw ("developing" model) or the base of the tail ("established" model) of male Charles River Lewis rats (120-140 g) that were housed individually and given food and water ad lib. Paw volumes (both hind paws) were measured immediately after injection of the adjuvant. Paw volumes were also measured at selected time intervals to follow the development of inflammation-induced swelling in the arthritic paws by immersion of the paw to the level of the lateral malleolus in a mercury plethysmograph. In the developing adjuvant arthritis model [Table 1], drugs were administered once a day (starting on the day of adjuvant injection and continuing for 23 days) by intubation using Tween 80 (polyoxyethylene sorbitan mono-oleate) at a dose of 0.25 ml/100 g body weight as the vehicle. Arthritic control rats received daily doses of the vehicle only. On day 23, i.e., approximately 24 hours after the last dose of drug, the rats were sacrificed, plasma was collected and plasma fibrinogen levels were determined (ammonium sulfate turbidimetric method) as described by Exner et al., Amer. J. Clin. Path., 71:521-527 (1979). Anti-inflammatory activity of the test drugs were determined by comparing the extent of paw swelling (paw volume on day 23 minus the paw volume on day 0) in drug-treated arthritic rats with the extent of paw swelling in the vehicle-treated arthritic rats. Drug induced decreases in the level of plasma fibrinogen, an acute phase protein that is elevated in the plasma of rats with adjuvant-induced arthritis, were also used to quantitiate the anti-inflammatory activity.

[4] = test system: adjuvant arthritis; test: Established adjuvant arthritis model (chronic adjuvant arthritis test); format: in vivo, male Charles River Lewis rats; details: for Change in Paw Volume (ml) / Change in body weight(g): difference from day 21 to day 28; for % Change in plasma fibrinogen: relative to vehicle-treated arthritic animals
Description: That the compounds of this invention are effective anti-arthritic agents can be seen from the results obtained when these compounds are administered to rats in accordance with the chronic adjuvant arthritis test system disclosed in Billingham and Davies "Handbook of Experimental Pharmacology" (editors J.R. Vane and S.H. Ferreira) Vol. 50/II, pg. 108-144, Springer-Verlag, Berlin, 1979). In this procedure, adjuvant arthritis was induced by the injection on day 0 to 0.10 ml of adjuvant (a suspension of heat-killed, dessicated Mycobacterium butyricum, 0.5% (w/v), in heavy mineral oil containing 0.2% digitonin) subplantarly into the right hind paw ("developing" model) or the base of the tail ("established" model) of male Charles River Lewis rats (120-140 g) that were housed individually and given food and water ad lib. Paw volumes (both hind paws) were measured immediately after injection of the adjuvant. Paw volumes were also measured at selected time intervals to follow the development of inflammation-induced swelling in the arthritic paws by immersion of the paw to the level of the lateral malleolus in a mercury plethysmograph. In the established adjuvant arthritis model [Table 2], the arthritis was allowed to develop untreated for 21 days and then the arthritic animals were divided into experimental groups with approximately equal mean hind paw volumes. Starting on day 21, the arthritic animals were treated by intubation once a day with drugs for 7 days (Tween 80 as vehicle). Arthritic control animals received daily doses of the vehicle only. On day 28, the animals were sacrificed, plasma was collected and plasma fibrinogen levels were determined as described above. Antiinflammatory activity was determined by comparing the change in paw swelling in drug-treated arthritic animals (combined hind paw volume on day 28 minus combined hind paw volume on day 21) with the change in paw swelling in vehicle-treated arthritic animals. Drug-induced changes in plasma fibrinogen were also used to assess the antiinflammatory effects of the test drugs.

[5] = 75 μ Moles/Kg Po. Tween 80, daily for 23 days
[6] = 75 µMoles/Kg p.o. tween 80, 7 days
[7] = 25 μ Moles/Kg Po. Tween 80, daily for 23 days

CCCCCCCCCOc1ccsc1/C=C/C(C)=C/C=C/C(C)=C/C(=O)O [the 2nd table, row 5]
Change in Paw Volume (ml) ([1]; 10 µMoles/Kg i.p. corn oil): 0.18* (0.86) ml | Change in body weight(g) ([1]; 10 µMoles/Kg i.p. corn oil): 11(15) g | % Change in plasma fibrinogen ([1]; 10 µMoles/Kg i.p. corn oil): -18* %

CC1=C(/C=C/C(C)=C/C=C/C(C)=C/C(=O)Nc2ccc(O)cc2)C(C)(C)CCC1 [4-hydroxyphenyl retinamide]
hypertriglyceridemia ([2]; no dose given): hypertriglyceridemia | serum cholesterol elevation ([2]; no dose given): serum cholesterol elevation

CC1=C(/C=C/C(C)=C/C=C/C(C)=C/C(=O)Nc2ccc(O)cc2)C(C)(C)CCC1 [the 1st table, row 6, 4-hydroxyphenyl retinamide, reference compound]
% Change in Paw Volume (day 23) left [3, 5]: -51* % | % Change in Paw Volume (day 23) right [3, 5]: -49* % | % Change in plasma fibrinogen [3, 5]: -42* % | Body Weight gain(g) ([3]; 75 μ Moles/Kg Po. Tween 80): 39(37) g | Cholesterol (% change) ([2]; 75 μ Moles/Kg Po. Tween 80): +66* %

CCCCCCCCCOc1ccsc1/C=C/C(C)=C/C=C/C(C)=C/C(=O)O [the 2nd table, row 3]
Change in Paw Volume (ml) ([4]; 25 µMoles/Kg p.o., 7 days): 0.15*(0.84) ml | Change in body weight(g) ([4]; 25 µMoles/Kg p.o., 7 days): 9(14) g | % Change in plasma fibrinogen ([4]; 25 µMoles/Kg p.o., 7 days): -32* % | Change in Paw Volume (ml) [4, 6]: -0.63*(0.61) ml | Change in body weight(g) [4, 6]: 5*(15) g | % Change in plasma fibrinogen [4, 6]: -34* %

CCCCCCCCCOc1cc(C)sc1/C=C/C(C)=C/C=C/C(C)=C/C(=O)O
Change in Paw Volume (ml) [4, 6]: 0.06* (1.03) ml | Change in body weight(g) [4, 6]: 15(14) g | % Change in plasma fibrinogen [4, 6]: -25* %

CCCCOc1ccsc1/C=C/C(C)=C/C=C/C(C)=C/C(=O)O
Change in Paw Volume (ml) ([1]; 75 µMoles/Kg i.p. corn oil): -0.59* (1.14) ml | Change in body weight(g) ([1]; 75 µMoles/Kg i.p. corn oil): 11(10) g | % Change in plasma fibrinogen ([1]; 75 µMoles/Kg i.p. corn oil): -55* %

CCCCCCCCCOc1ccsc1/C=C/C(C)=C/C=C/C(C)=C/C(=O)O [the 1st table, row 4]
% Change in Paw Volume (day 23) left [3, 7]: -50* % | % Change in Paw Volume (day 23) right [3, 7]: -50* % | % Change in plasma fibrinogen [3, 7]: -45* % | Body Weight gain(g) ([3]; 25 μ Moles/Kg Po. Tween 80): 31(37) g | % Change in Paw Volume (day 23) left [3, 5]: -84* % | % Change in Paw Volume (day 23) right [3, 5]: -68* % | % Change in plasma fibrinogen [3, 5]: -55* % | Body Weight gain(g) ([3]; 75 μ Moles/Kg Po. Tween 80): 27(30) g | Cholesterol (% change) ([2]; 25 μ Moles/Kg Po. Tween 80): -14* % | Cholesterol (% change) ([2]; 75 μ Moles/Kg Po. Tween 80): -25* %
